Laboratory results taken from patent US12668600B2 (Kumquat Biosciences Inc., priority 2023, dated 2026).

How the values were obtained:
Format in all cases: biochemical
KRAS G12D = target: T1, KRAS G12D (Homo sapiens, UniProt P01116, G12D); test: HTRF KRAS-SOS1 interaction assay, KRAS G12D; details: binned ≤2 μM / >2 μM, read-out: Inhibition of KRAS G12D (IC50)
T1 construct: made in house; host or cells: E. coli, e.g. BL21 (DE3)
In short: (§1)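 GST-tagged KRAS (WT or mutant) with anti-GST-Eu donor, mixed with His-hSOS1 and anti-6His-XL665 acceptor. Buffer ~5 mM HEPES pH 7.4, ~150 mM NaCl, ~1 mM DTT, 0.05% BSA, 0.0025% Igepal; incubated about 10 min or longer. HTRF 665/620 ratio, compounds in duplicate up to 10 μM, IC50 derived.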

KRAS WT = target: T2, KRAS WT (Homo sapiens, UniProt P01116); test: HTRF KRAS-SOS1 interaction assay, wildtype KRAS; details: binned ≤2 μM / >2 μM, read-out: Inhibition of KRAS WT (IC50)
T2 construct: made in house; host or cells: E. coli, e.g. BL21 (DE3)
In short: as §1

KRAS G12V = target: T3, KRAS G12V (Homo sapiens, UniProt P01116, G12V); test: HTRF KRAS-SOS1 interaction assay, KRAS G12V; details: binned ≤2 μM / >2 μM, read-out: Inhibition of KRAS G12V (IC50)
T3 construct: made in house; host or cells: E. coli, e.g. BL21 (DE3)
In short: as §1

KRAS G12S = target: T4, KRAS G12S (Homo sapiens, UniProt P01116, G12S); test: HTRF KRAS-SOS1 interaction assay, KRAS G12S; details: binned ≤2 μM / >2 μM, read-out: Inhibition of KRAS G12S (IC50)
T4 construct: made in house; host or cells: E. coli, e.g. BL21 (DE3)
In short: as §1

Measured: IC50

T1 sequence (P01116 1-188 isoform P01116-2 G12D): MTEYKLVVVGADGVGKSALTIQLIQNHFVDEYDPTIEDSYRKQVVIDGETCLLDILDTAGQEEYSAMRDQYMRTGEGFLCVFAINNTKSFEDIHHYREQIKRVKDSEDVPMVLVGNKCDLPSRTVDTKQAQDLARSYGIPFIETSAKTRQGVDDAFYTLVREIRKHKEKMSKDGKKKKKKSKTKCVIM
T4 sequence (P01116 1-188 isoform P01116-2 G12S): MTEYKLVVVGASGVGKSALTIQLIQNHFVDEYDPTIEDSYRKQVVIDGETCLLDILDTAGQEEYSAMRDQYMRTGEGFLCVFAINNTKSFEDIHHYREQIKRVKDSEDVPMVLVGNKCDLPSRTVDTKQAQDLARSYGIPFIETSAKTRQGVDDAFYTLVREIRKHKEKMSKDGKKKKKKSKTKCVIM
T2 sequence (P01116 1-188 isoform P01116-2): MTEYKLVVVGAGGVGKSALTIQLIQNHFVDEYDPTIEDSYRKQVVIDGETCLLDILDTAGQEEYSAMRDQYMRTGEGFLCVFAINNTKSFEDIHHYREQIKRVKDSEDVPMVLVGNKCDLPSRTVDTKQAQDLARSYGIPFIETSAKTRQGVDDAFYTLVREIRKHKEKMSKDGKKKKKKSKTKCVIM
T3 sequence (P01116 1-188 isoform P01116-2 G12V): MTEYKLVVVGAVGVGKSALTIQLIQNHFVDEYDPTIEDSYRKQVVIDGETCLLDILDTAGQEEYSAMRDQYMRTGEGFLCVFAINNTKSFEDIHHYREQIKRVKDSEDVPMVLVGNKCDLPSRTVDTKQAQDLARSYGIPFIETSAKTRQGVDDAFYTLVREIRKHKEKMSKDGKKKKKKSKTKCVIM

Cc1ccnc(N)c1[C@@H](C)N1CCOc2c(C(F)(F)F)c(-c3ccc(F)c4sc(N)c(C#N)c34)c(F)c3nc(OC[C@@]45CCCN4C[C@H](F)C5)nc1c23 (single isomer, unassigned) [Compound 821]
≤ 2000 nM: all assays above

C#C[C@H](c1cccnc1N)N1CCOc2c(Cl)c(-c3ccc(F)c4sc(N)c(C#N)c34)c(F)c3nc(OC[C@@]45CCCN4C[C@H](F)C5)nc1c23 [Compound 904, 2-amino-4-(4-((R)-1-(2-aminopyridin-3-yl)prop-2-yn-1-yl)-8-chloro-10-fluoro-2-(((2R,7aS)-2-fluorotetrahydro-1H-pyrrolizin-7a(5H)-yl)methoxy)-5,6-dihydro-4H-[1,4]oxazepino[5,6,7-de]quinazolin-9-yl)-7-fluorobenzo[b]thiophene-3-carbonitrile]
≤ 2000 nM: all assays above

N#Cc1c(N)sc2c(F)ccc(-c3c(C(F)(F)F)c4c5c(nc(OC[C@@]67CCCN6C[C@H](F)C7)nc5c3F)N([C@H](CCCN3CCCCC3)c3cccnc3N)CCO4)c12 (single isomer, unassigned) [Compound 704]
≤ 2000 nM: all assays above

C[C@H](c1ccc(F)nc1N)N1CCOc2c(C(F)(F)F)c(-c3ccc(F)c4sc(N)c(C#N)c34)c(F)c3nc(OCC4(CN5CCC(F)CC5)CC4)nc1c23 [Compound 604, 2-amino-4-(4-((R)-1-(2-amino-6-fluoropyridin-3-yl)ethyl)-10-fluoro-2-((1-((4-fluoropiperidin-1-yl)methyl)cyclopropyl)methoxy)-8-(trifluoromethyl)-5,6-dihydro-4H-[1,4]oxazepino[5,6,7-de]quinazolin-9-yl)-7-fluorobenzo[b]thiophene-3-carbonitrile]
≤ 2000 nM: all assays above

C[C@@H]1CN(CC2(COc3nc4c5c(c(C(F)(F)F)c(-c6ccc(F)c7sc(N)c(C#N)c67)c(F)c5n3)OCCN4[C@H](C)c3cccnc3N)CC2)CCO1 (single isomer, unassigned) [Compound 812]
≤ 2000 nM: all assays above

C[C@H](c1cc(C2CC2)cnc1N)N1CCOc2c(C(F)(F)F)c(-c3ccc(F)c4sc(N)c(C#N)c34)c(F)c3nc(OC[C@@]45CCCN4C[C@H](F)C5)nc1c23 [Compound 654, 2-amino-4-(4-((R)-1-(2-amino-5-cyclopropylpyridin-3-yl)ethyl)-10-fluoro-2-(((2R,7aS)-2-fluorotetrahydro-1H-pyrrolizin-7a(5H)-yl)methoxy)-8-(trifluoromethyl)-5,6-dihydro-4H-[1,4]oxazepino[5,6,7-de]quinazolin-9-yl)-7-fluorobenzo[b]thiophene-3-carbonitrile]
≤ 2000 nM: all assays above

N#Cc1c(N)sc2c(F)ccc(-c3c(C(F)(F)F)c4c5c(nc(OC[C@@]67CCCN6CC(=C(F)F)C7)nc5c3F)N([C@H](CCC(F)(F)F)c3cccnc3N)CCO4)c12 [Compound 666, 2-amino-4-(4-((R)-1-(2-aminopyridin-3-yl)-4,4,4-trifluorobutyl)-2-(((S)-2-(difluoromethylene)tetrahydro-1H-pyrrolizin-7a(5H)-yl)methoxy)-10-fluoro-8-(trifluoromethyl)-5,6-dihydro-4H-[1,4]oxazepino[5,6,7-de]quinazolin-9-yl)-7-fluorobenzo[b]thiophene-3-carbonitrile]
≤ 2000 nM: all assays above

Cc1c(F)c(N)cc(-c2nc3c4c(nc(O[C@@H](C)[C@@H]5CCCN5C)nc4c2F)N([C@H](C)c2cccnc2N)C[C@H](C)O3)c1C(F)(F)F (single isomer, unassigned) [Compound 816]
≤ 2000 nM: all assays above

C[C@@H]1COCCN1CC1(COc2nc3c4c(c(C(F)(F)F)c(-c5ccc(F)c6sc(N)c(C#N)c56)c(F)c4n2)OCCN3[C@H](C)c2cccnc2N)CC1 (single isomer, unassigned) [Compound 608]
≤ 2000 nM: all assays above

C[C@H](c1cccnc1N)N1CCOc2c(Cl)c(-c3cccc4sc(N)c(C#N)c34)c(F)c3nc(OC[C@@H]4CCCN4C)nc1c23 [Compound 612, 2-amino-4-(4-((R)-1-(2-aminopyridin-3-yl)ethyl)-8-chloro-10-fluoro-2-(((S)-1-methylpyrrolidin-2-yl)methoxy)-5,6-dihydro-4H-[1,4]oxazepino[5,6,7-de]quinazolin-9-yl)benzo[b]thiophene-3-carbonitrile]
≤ 2000 nM: all assays above

CN1CCC[C@H]1COc1nc2c3c(c(Cl)c(-c4ccc(F)c5sc(N)c(C#N)c45)c(F)c3n1)OCCN2C(c1cccnc1N)C(F)F (mixture of isomers) [Compound 769, 2-amino-4-(4-(1-(2-aminopyridin-3-yl)-2,2-difluoroethyl)-8-chloro-10-fluoro-2-(((S)-1-methylpyrrolidin-2-yl)methoxy)-5,6-dihydro-4H-[1,4]oxazepino[5,6,7-de]quinazolin-9-yl)-7-fluorobenzo[b]thiophene-3-carbonitrile]
≤ 2000 nM: all assays above

C[C@H](Oc1nc2c3c(c(C(F)(F)F)c(-c4ccc(F)c5sc(N)c(C#N)c45)c(F)c3n1)OCCN2[C@H](C)c1cccnc1N)[C@@H]1C[C@@H](F)CN1C [Compound 890, 2-amino-4-(4-((R)-1-(2-aminopyridin-3-yl)ethyl)-10-fluoro-2-((S)-1-((2S,4R)-4-fluoro-1-methylpyrrolidin-2-yl)ethoxy)-8-(trifluoromethyl)-5,6-dihydro-4H-[1,4]oxazepino[5,6,7-de]quinazolin-9-yl)-7-fluorobenzo[b]thiophene-3-carbonitrile]
≤ 2000 nM: all assays above

CON=C1CN2CCC[C@@]2(COc2nc3c4c(c(C(F)(F)F)c(-c5ccc(F)c6sc(N)c(C#N)c56)c(F)c4n2)OCCN3[C@H](C)c2cccnc2N)C1 (mixture of isomers) [Compound 622, 2-amino-4 ((S)-4-((R)-1-(2-aminopyridin-3-yl)ethyl)-10-fluoro-2-(((S)-2-(methoxyimino)tetrahydro-1H-pyrrolizin-7a (5H)-yl)methoxy)-8-(trifluoromethyl)-5,6-dihydro-4H-[1,4]oxazepino[5,6,7-de]quinazolin-9-yl)-7-fluorobenzo[b]thiophene-3-carbonitrile]
≤ 2000 nM: all assays above

N#Cc1c(N)sc2c(F)ccc(-c3c(C(F)(F)F)c4c5c(nc(OC[C@@]67CCCN6C[C@H](F)C7)nc5c3F)N([C@H](CCC3CC3)c3cccnc3N)CCO4)c12 (single isomer, unassigned) [Compound 877]
≤ 2000 nM: all assays above

CO[C@H]1CCN(C)[C@@H]1[C@H](C)Oc1nc2c3c(c(C(F)(F)F)c(-c4ccc(F)c5sc(N)c(C#N)c45)c(F)c3n1)OCCN2[C@H](CCC(F)(F)F)c1cccnc1N [Compound 649, 2-amino-4-(4-((R)-1-(2-aminopyridin-3-yl)-4,4,4-trifluorobutyl)-10-fluoro-2-((S)-1-((2R,3S)-3-methoxy-1-methylpyrrolidin-2-yl)ethoxy)-8-(trifluoromethyl)-5,6-dihydro-4H-[1,4]oxazepino[5,6,7-de]quinazolin-9-yl)-7-fluorobenzo[b]thiophene-3-carbonitrile]
≤ 2000 nM: all assays above

C[C@H](c1cccnc1N)N1CCOc2c(Cl)c(-c3ccc(F)c4sc(N)c(C#N)c34)c(F)c3nc(OC[C@@]45CCCN4CC(=C(F)F)C5)nc1c23 (atropisomer, axis not shown) [Compound 636, 2-amino-4-((R)-4-((R)-1-(2-aminopyridin-3-yl)ethyl)-8-chloro-2-(((S)-2-(difluoromethylene)tetrahydro-1H-pyrrolizin-7a (5H)-yl)methoxy)-10-fluoro-5,6-dihydro-4H-[1,4]oxazepino[5,6,7-de]quinazolin-9-yl)-7-fluorobenzo[b]thiophene-3-carbonitrile]
≤ 2000 nM: all assays above

C[C@H](c1nccnc1N)N1CCOc2c(C(F)(F)F)c(-c3ccc(F)c4sc(N)c(C#N)c34)c(F)c3nc(OC[C@@]45CCCN4C[C@H](F)C5)nc1c23 (single isomer, unassigned) [Compound 760]
≤ 2000 nM: all assays above

C[C@H](c1cncnc1N)N1CCOc2c(C(F)(F)F)c(-c3cccc4sc(N)c(C#N)c34)c(F)c3nc(OC[C@@]45CCCN4C[C@H](F)C5)nc1c23 (single isomer, unassigned) [Compound 723]
≤ 2000 nM: all assays above
